Results: patent US20260258035A1, “FIVE-MEMBERED AND SIX-MEMBERED NITROGEN-CONTAINING COMPOUND, AND INTERMEDIATE, PREPARATION METHOD AND USE THEREOF” (HANGZHOU SYNRX THERAPEUTICS BIOMEDICAL TECHNOLOGY CO., LTD., priority 2022, published 2026)
Like-named read-outs stand apart in the source and are kept apart here.

Tests used:
PARG = PARG (Homo sapiens, UniProt Q86W56); assay: Biochemical assay (PARG, TFMU-ADPr substrate); details: PARG, TFMU-ADPr substrate
HCC1806 = assay: Cell viability assay (CellTiter-Glo); format: cell-based, Human; details: read-out: IC50 (nM) in cell viability assay
[1] = Homo sapiens, HCC1806, 168 h, HCC1806, 7 days, CellTiter-Glo

Sequence of PARG (Q86W56 whole entry): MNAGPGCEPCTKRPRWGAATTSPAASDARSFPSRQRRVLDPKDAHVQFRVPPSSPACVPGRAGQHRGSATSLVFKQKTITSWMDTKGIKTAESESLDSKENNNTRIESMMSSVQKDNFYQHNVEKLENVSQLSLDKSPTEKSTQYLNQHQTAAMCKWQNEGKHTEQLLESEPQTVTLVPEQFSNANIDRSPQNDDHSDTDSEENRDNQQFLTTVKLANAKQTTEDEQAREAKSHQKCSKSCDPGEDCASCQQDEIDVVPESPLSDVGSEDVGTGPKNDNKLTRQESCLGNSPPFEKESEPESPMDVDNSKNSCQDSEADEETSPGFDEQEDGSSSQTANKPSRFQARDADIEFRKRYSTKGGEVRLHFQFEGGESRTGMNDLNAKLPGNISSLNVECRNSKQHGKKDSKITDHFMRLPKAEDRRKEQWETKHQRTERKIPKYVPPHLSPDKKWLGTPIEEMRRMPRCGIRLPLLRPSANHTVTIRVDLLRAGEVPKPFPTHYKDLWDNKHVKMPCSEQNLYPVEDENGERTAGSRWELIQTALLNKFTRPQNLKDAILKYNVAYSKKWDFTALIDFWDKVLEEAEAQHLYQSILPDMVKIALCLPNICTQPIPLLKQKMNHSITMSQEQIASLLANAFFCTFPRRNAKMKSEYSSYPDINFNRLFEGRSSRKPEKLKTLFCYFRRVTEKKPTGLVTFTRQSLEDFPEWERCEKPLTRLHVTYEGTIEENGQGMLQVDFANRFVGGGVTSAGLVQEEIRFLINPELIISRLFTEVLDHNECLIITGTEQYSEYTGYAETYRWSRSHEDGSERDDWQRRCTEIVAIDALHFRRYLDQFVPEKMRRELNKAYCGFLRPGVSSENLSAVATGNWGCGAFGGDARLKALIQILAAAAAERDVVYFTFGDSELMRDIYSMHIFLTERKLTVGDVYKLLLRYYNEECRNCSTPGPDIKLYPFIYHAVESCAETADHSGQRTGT

| Compound | IC50 (PARG) [nM] | IC50 (HCC1806; [1]) [nM] | IC50 (HCC1806; Homo sapiens, HCC1806, 168 h) [nM] | IC50 (HCC1806; HCC1806, 7 days, CellTiter-Glo) [nM] |
| --- | --- | --- | --- | --- |
| CN(C)CCCOC1(C(=O)N2CCN(c3cc(S(=O)(=O)NC4(C)CC4)cn4c(-c5nnc(C(F)(F)F)s5)ncc34)CC2)CC1 [Example 385, 8-(4-(1-(3-(dimethylamino)propoxy)cyclopropane-1-carbonyl)piperazin-1-yl)-N-(1-methylcyclopropyl)-3-(5-(trifluoromethyl)-1,3,4-thiadiazol-2-yl)imidazo[1,5-a]pyridine-6-sulfonamide] | 0.48 |  | 40 |  |
| [2H]C([2H])([2H])OCC1CN(c2cc(S(=O)(=O)NC3(C)COC3)cn3c(-c4nnc(C(F)F)s4)nc(Cl)c23)CCN1 (stereo not drawn) [Example 391, 1-chloro-3-(5-(difluoromethyl)-1,3,4-thiadiazol-2-yl)-8-(3-((methoxy-d3)methyl)piperazin-1-yl)-N-(3-methyloxetan-3-yl)imidazo[1,5-a]pyridine-6-sulfonamide] | 5.01 | 177 |  |  |
| [2H]C([2H])([2H])OCC1CN(c2cc(S(=O)(=O)NC3(C)COC3)cn3c(-c4nnc(C(F)F)s4)ncc23)CCN1 (stereo not drawn) [Example 392, 3-(5-(difluoromethyl)-1,3,4-thiadiazol-2-yl)-8-(3-((methoxy-d3)methyl)piperazin-1-yl)-N-(3-methyloxetan-3-yl)imidazo[1,5-a]pyridine-6-sulfonamide] | 11 | 132 |  |  |
| C[C@H]1CN(c2cc(S(=O)(=O)NC3(C)COC3)cn3c(-c4nnc(C(F)F)s4)ncc23)C[C@H](CO)O1 [Example 396, 3-(5-(difluoromethyl)-1,3,4-thiadiazol-2-yl)-8-((2R,6S)-2-(hydroxymethyl)-6-methylmorpholino)-N-(3-methyloxetan-3-yl)imidazo[1,5-a]pyridine-6-sulfonamide] | 2.08 | 36.8 |  |  |
| C[C@H]1CN(c2cc(S(=O)(=O)NC3(C)COC3)cn3c(-c4nnc(C(F)F)s4)ncc23)C[C@H](CN(C)C)O1 [Example 398, 3-(5-(difluoromethyl)-1,3,4-thiadiazol-2-yl)-8-((2S,6S)-2-((dimethylamino)methyl)-6-methylmorpholino)-N-(3-methyloxetan-3-yl)imidazo[1,5-a]pyridine-6-sulfonamide] | 27.5 | 992 |  |  |
| C[C@H]1CN(c2cc(S(=O)(=O)NC3(C)COC3)cn3c(-c4nnc(C(F)F)s4)ncc23)C[C@H](C)N1C [Example 400, 3-(5-(difluoromethyl)-1,3,4-thiadiazol-2-yl)-N-(3-methyloxetan-3-yl)-8-((3S,5S)-3,4,5-trimethylpiperazin-1-yl)imidazo[1,5-a]pyridine-6-sulfonamide] | 6.31 | 267 |  |  |
| C[C@H]1CN(c2cc(S(=O)(=O)NC3(C)COC3)cn3c(-c4nnc(C(F)F)s4)nc(Cl)c23)C[C@H](CO)N1 [Example 402, 1-chloro-3-(5-(difluoromethyl)-1,3,4-thiadiazol-2-yl)-8-((3R,5S)-3-(hydroxymethyl)-5-methylpiperazin-1-yl)-N-(3-methyloxetan-3-yl)imidazo[1,5-a]pyridine-6-sulfonamide] | 20.9 | 1840 |  |  |
| COC[C@H]1CN(c2cc(S(=O)(=O)NC3(C)COC3)cn3c(-c4nnc(C(F)F)s4)nc(Cl)c23)C[C@H](C)N1 [Example 403, 1-chloro-3-(5-(difluoromethyl)-1,3,4-thiadiazol-2-yl)-8-((3R,5S)-3-(methoxymethyl)-5-methylpiperazin-1-yl)-N-(3-methyloxetan-3-yl)imidazo[1,5-a]pyridine-6-sulfonamide] | 21.9 | 458 |  |  |
| COC[C@H]1CN(c2cc(S(=O)(=O)NC3(C)COC3)cn3c(-c4nnc(C(F)F)s4)ncc23)C[C@H](C)N1 [Example 404, 3-(5-(difluoromethyl)-1,3,4-thiadiazol-2-yl)-8-((3R,5S)-3-(methoxymethyl)-5-methylpiperazin-1-yl)-N-(3-methyloxetan-3-yl)imidazo[1,5-a]pyridine-6-sulfonamide] | 1.09 | 27 |  |  |
| N-(1-cyanocyclopropyl)-8-(4-(oxetane-3-carbonyl)piperazin-1-yl)-3-(5-(trifluoromethyl)-1,3,4-thiadiazol-2-yl)imidazo[1,5-a]pyridine-6-sulfonamide [Example 294] | 12 |  |  | 110 |

Continued, in another order:

| IC50 (PARG) [nM] | IC50 (HCC1806; [1]) [nM] | Compound | IC50 (HCC1806; Homo sapiens, HCC1806, 168 h) [nM] | IC50 (HCC1806; HCC1806, 7 days, CellTiter-Glo) [nM] |
| --- | --- | --- | --- | --- |
| 0.25 | 14.8 | CC1(NS(=O)(=O)c2cc(N3CCN(C(=O)C4(OCCO)CC4)CC3)c3cnc(-c4nnc(C(F)(F)F)s4)n3c2)CC1 [Example 383, 8-(4-(1-(2-hydroxyethoxy)cyclopropane-1-carbonyl)piperazin-1-yl)-N-(1-methylcyclopropyl)-3-(5-(trifluoromethyl)-1,3,4-thiadiazol-2-yl)imidazo[1,5-a]pyridine-6-sulfonamide] |  |  |
| < 0.15 | 17.6 | CN(C)CCOC1(C(=O)N2CCN(c3cc(S(=O)(=O)NC4(C)CC4)cn4c(-c5nnc(C(F)(F)F)s5)ncc34)CC2)CC1 [Example 384, 8-(4-(1-(2-(dimethylamino)ethoxy)cyclopropane-1-carbonyl)piperazin-1-yl)-N-(1-methylcyclopropyl)-3-(5-(trifluoromethyl)-1,3,4-thiadiazol-2-yl)imidazo[1,5-a]pyridine-6-sulfonamide] |  |  |
| 263 | 7880 | C[C@@H]1CN(c2cc(S(=O)(=O)NC3CC3)cn3c(-c4nnc(C(F)(F)F)s4)nnc23)CCN1C(=O)C1(C)CC1 [Example 386, (R)—N-cyclopropyl-8-(3-methyl-4-(1-methylcyclopropane-1-carbonyl)piperazin-1-yl)-3-(5-(trifluoromethyl)-1,3,4-thiadiazol-2-yl)-[1,2,4]triazolo[4,3-a]pyridine-6-sulfonamide] |  |  |
| 38 | 800 | CC(C)C(=O)N1CCN(c2cc(S(=O)(=O)NC3CC3)cn3c(-c4nnc(C(F)(F)F)s4)nnc23)CC1 [Example 387, N-cyclopropyl-8-(4-isobutyrylpiperazin-1-yl)-3-(5-(trifluoromethyl)-1,3,4-thiadiazol-2-yl)-[1,2,4]triazolo[4,3-a]pyridine-6-sulfonamide] |  |  |
| 10 | 320 | CC(C)C(=O)N1CCN(c2cc(S(=O)(=O)NC3(C)CC3)cn3c(-c4nnc(C(F)(F)F)s4)nnc23)CC1 [Example 388, 8-(4-isobutyrylpiperazin-1-yl)-N-(1-methylcyclopropyl)-3-(5-(trifluoromethyl)-1,3,4-thiadiazol-2-yl)-[1,2,4]triazolo[4,3-a]pyridine-6-sulfonamide] |  |  |
| 20 | 2130 | CC(C)C(=O)N1CC2(C=C(c3nc(-c4nnc(C(F)(F)F)s4)n4cc(S(=O)(=O)NC5(C#N)CC5)ccc34)CC2)C1 [Example 389, N-(1-cyanocyclopropyl)-1-(2-isobutyryl-2-azaspiro[3.4]oct-5-en-6-yl)-3-(5-(trifluoromethyl)-1,3,4-thiadiazol-2-yl)imidazo[1,5-a]pyridine-6-sulfonamide] |  |  |
| 28.2 | 793 | CC(C)C(=O)N1CCN(c2c(F)c(S(=O)(=O)NC3(C#N)CC3)cn3c(-c4nnc(C(F)(F)F)s4)ncc23)CC1 [Example 390, N-(1-cyanocyclopropyl)-7-fluoro-8-(4-isobutyrylpiperazin-1-yl)-3-(5-(trifluoromethyl)-1,3,4-thiadiazol-2-yl)imidazo[1,5-a]pyridine-6-sulfonamide] |  |  |
| 5.75 | 222 | CN1CC2CN(c3cc(S(=O)(=O)NC4(C)COC4)cn4c(-c5nnc(C(F)(F)F)s5)ncc34)CCN2C(=O)C12CC2 (stereo not drawn) [Example 393, 8-(2′-methyl-4′-oxohexahydro-4′H,8′H-spiro[cyclopropane-1,3′-pyrazino[1,2-a]pyrazin]-8′-yl)-N-(3-methyloxetan-3-yl)-3-(5-(trifluoromethyl)-1,3,4-thiadiazol-2-yl)imidazo[1,5-a]pyridine-6-sulfonamide] |  |  |
| 6.56 | 1700 | CC1(NS(=O)(=O)c2cc(N3CCN4C(=O)NCC4C3)c3cnc(-c4nnc(C(F)(F)F)s4)n3c2)COC1 (stereo not drawn) [Example 394, N-(3-methyloxetan-3-yl)-8-(3-oxohexahydroimidazo[1,5-a]pyrazin-7(1H)-yl)-3-(5-(trifluoromethyl)-1,3,4-thiadiazol-2-yl)imidazo[1,5-a]pyridine-6-sulfonamide] |  |  |
| 12.6 | 755 | COC1(C(=O)N2[C@@H](C)CN(c3cc(S(=O)(=O)NC4(C)COC4)cn4c(-c5nnc(C(F)F)s5)ncc34)C[C@@H]2C)CC1 [Example 399, 3-(5-(difluoromethyl)-1,3,4-thiadiazol-2-yl)-8-((3S,5S)-4-(1-methoxycyclopropane-1-carbonyl)-3,5-dimethylpiperazin-1-yl)-N-(3-methyloxetan-3-yl)imidazo[1,5-a]pyridine-6-sulfonamide] |  |  |
| 158 | 2800 | CC(=O)N1[C@@H](C)CN(c2cc(S(=O)(=O)NC3(C)COC3)cn3c(-c4nnc(C(F)F)s4)ncc23)C[C@@H]1C [Example 401, 8-((3S,5S)-4-acetyl-3,5-dimethylpiperazin-1-yl)-3-(5-(difluoromethyl)-1,3,4-thiadiazol-2-yl)-N-(3-methyloxetan-3-yl)imidazo[1,5-a]pyridine-6-sulfonamide] |  |  |
